Results published in ChEMBL document CHEMBL1156502, “Stabilized immune modulatory RNA compounds as agonists of Toll-like receptors 7 and 8” (Proc Natl Acad Sci U S A, 2007).
Activity calls are given as the source filed them. The rule behind the calls is not given here.

Experiments:
Cynomolgus monkey [1] = test: Increase in CD69 expression on CD16+ NK cells in cynomolgus monkey at 5 mg/kg, sc after 24 hrs by flow cytometry relative to control; assay type: functional, organism-based; set-up: dose 5 mg/kg; details: Macaca fascicularis
Cynomolgus monkey [2] = test: Elevation of IFNalpha in cynomolgus monkey plasma at 5 mg/kg, sc after 24 hrs; assay type: functional, organism-based; set-up: dose 5 mg/kg; details: Macaca fascicularis
Cynomolgus monkey [3] = test: Increase in CD69 expression on CD3+ lymphocytes in cynomolgus monkey at 5 mg/kg, sc after 24 hrs by flow cytometry relative to control; assay type: functional, organism-based; set-up: dose 5 mg/kg; details: Macaca fascicularis
Cynomolgus monkey [4] = test: Elevation of IP10 in cynomolgus monkey plasma at 5 mg/kg, sc after 24 hrs; assay type: functional, organism-based; set-up: dose 5 mg/kg; details: Macaca fascicularis
Cynomolgus monkey [5] = test: Induction of immune response in cynomolgus monkey assessed as increase in number of peripheral blood neutrophils at 5 mg/kg, sc within 24 hrs; assay type: functional, organism-based; set-up: dose 5 mg/kg; details: Macaca fascicularis
PBMC [6] = test: Induction of IL12 secretion in human PBMC after 24 hrs by Luminex Multiplex assay; assay type: functional, cell-based
PBMC [7] = test: Induction of IL1-beta secretion in human PBMC after 24 hrs by Luminex Multiplex assay; assay type: functional, cell-based
PBMC [8] = test: Induction of IFN-gamma secretion in human PBMC after 24 hrs by Luminex Multiplex assay; assay type: functional, cell-based
[9] = molecular target: T1, Toll-like receptor 7 (Homo sapiens) (UniProt Q9NYK1); test: Activation of human TLR7 expressed in HEK293 cells assessed as increase in NF-kappaB activation at 100 ug/ml by SEAP assay; assay type: cell-based
T1 sequence (whole entry): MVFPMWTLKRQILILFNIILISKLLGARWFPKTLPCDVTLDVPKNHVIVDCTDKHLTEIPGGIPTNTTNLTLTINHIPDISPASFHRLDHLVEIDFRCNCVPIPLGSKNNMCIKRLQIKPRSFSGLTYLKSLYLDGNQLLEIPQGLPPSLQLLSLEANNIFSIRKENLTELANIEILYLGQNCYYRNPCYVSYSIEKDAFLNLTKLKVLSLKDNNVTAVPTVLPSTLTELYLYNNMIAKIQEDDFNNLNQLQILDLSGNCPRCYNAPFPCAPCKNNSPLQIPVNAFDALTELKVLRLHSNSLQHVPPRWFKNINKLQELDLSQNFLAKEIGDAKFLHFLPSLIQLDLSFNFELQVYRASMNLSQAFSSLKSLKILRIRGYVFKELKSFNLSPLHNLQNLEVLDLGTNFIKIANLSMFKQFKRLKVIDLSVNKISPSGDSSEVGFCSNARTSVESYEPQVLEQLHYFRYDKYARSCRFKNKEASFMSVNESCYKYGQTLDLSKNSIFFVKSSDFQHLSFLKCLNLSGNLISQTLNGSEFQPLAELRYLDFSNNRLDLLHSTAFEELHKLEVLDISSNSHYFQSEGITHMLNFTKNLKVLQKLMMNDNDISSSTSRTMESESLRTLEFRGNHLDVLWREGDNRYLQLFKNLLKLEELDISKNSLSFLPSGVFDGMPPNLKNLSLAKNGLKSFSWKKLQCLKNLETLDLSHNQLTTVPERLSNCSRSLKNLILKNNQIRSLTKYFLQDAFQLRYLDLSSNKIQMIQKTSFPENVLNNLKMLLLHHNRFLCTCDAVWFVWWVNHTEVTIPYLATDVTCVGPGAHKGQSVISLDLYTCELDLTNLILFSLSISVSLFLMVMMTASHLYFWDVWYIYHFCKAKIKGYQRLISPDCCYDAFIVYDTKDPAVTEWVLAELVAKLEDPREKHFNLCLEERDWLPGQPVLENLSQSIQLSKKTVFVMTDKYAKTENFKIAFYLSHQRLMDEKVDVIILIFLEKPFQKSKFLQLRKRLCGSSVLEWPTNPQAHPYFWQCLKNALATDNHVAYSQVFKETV

Cynomolgus monkey [10] = test: Induction of immune response in cynomolgus monkey assessed as increase in number of peripheral blood monocytes at 5 mg/kg, sc within 24 hrs; assay type: functional, organism-based; set-up: dose 5 mg/kg; details: Macaca fascicularis
PBMC [11] = test: Induction of IL2R secretion in human PBMC after 24 hrs by Luminex Multiplex assay; assay type: functional, cell-based
[12] = Stability in 1% human serum assessed as full length product after 10 mins; assay type: ADME, cell-free; details: read-out: Stability
Cynomolgus monkey [13] = test: Increase in CD69 expression on CD14+ monocytes in cynomolgus monkey at 5 mg/kg, sc after 24 hrs by flow cytometry relative to control; assay type: functional, organism-based; set-up: dose 5 mg/kg; details: Macaca fascicularis
PBMC [14] = test: Induction of IFNalpha secretion in human PBMC after 24 hrs by Luminex Multiplex assay; assay type: functional, cell-based
PBMC [15] = test: Induction of IL10 secretion in human PBMC after 24 hrs by Luminex Multiplex assay; assay type: functional, cell-based
[16] = molecular target: T2, Toll-like receptor 8 (Homo sapiens) (UniProt Q9NR97); test: Activation of human TLR8 expressed in HEK293 cells assessed as increase in NF-kappaB activation at 100 ug/ml by SEAP assay; assay type: cell-based
T2 sequence (whole entry): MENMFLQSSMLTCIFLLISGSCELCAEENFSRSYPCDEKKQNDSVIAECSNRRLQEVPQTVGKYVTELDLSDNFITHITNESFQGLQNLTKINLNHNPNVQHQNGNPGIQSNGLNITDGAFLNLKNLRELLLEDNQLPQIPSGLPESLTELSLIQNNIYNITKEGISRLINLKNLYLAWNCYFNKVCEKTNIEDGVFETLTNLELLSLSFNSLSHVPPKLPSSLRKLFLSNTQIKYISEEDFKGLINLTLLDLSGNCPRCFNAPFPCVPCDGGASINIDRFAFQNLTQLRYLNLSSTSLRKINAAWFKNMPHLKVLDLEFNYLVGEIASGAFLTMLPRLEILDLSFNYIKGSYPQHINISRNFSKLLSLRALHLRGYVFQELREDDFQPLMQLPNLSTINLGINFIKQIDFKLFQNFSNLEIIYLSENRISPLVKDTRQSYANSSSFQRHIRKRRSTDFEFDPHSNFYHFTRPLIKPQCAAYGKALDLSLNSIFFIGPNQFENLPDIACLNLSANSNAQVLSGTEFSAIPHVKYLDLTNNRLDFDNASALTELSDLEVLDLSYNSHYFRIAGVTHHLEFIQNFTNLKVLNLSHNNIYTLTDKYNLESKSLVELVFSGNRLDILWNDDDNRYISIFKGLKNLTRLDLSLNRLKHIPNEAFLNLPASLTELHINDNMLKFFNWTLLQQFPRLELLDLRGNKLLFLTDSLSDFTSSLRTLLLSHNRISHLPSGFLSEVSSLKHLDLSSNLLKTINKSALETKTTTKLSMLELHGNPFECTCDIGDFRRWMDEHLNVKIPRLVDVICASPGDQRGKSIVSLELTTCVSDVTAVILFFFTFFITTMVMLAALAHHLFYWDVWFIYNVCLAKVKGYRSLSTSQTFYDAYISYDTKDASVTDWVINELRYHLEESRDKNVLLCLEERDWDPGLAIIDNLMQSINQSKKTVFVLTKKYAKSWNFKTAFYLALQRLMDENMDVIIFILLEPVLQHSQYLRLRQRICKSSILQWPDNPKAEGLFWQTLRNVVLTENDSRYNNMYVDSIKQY

Question: What does the source list for Nc1ccn([C@@H]2O[C@H](COP(O)(=S)O[C@H]3[C@@H](O)[C@H](n4cnc5c(=O)[nH]c(N)nc54)O[C@@H]3COP(O)(=S)O[C@H]3[C@@H](O)[C@H](n4ccc(=O)[nH]c4=O)O[C@@H]3COCCCO)[C@@H](OP(O)(=S)OC[C@H]3O[C@@H](n4ccc(=O)[nH]c4=O)[C@H](O)[C@@H]3OP(O)(=S)OC[C@H]3O[C@@H](n4cnc5c(=O)[nH]c(N)nc54)[C@H](O)[C@@H]3OP(O)(=S)OC[C@H]3O[C@@H](n4ccc(N)nc4=O)[C@H](O)[C@@H]3OP(O)(=S)OC[C@H]3O[C@@H](n4ccc(=O)[nH]c4=O)[C@H](O)[C@@H]3OP(O)(=S)OC[C@H]3O[C@@H](n4ccc(=O)[nH]c4=O)[C@H](O)[C@@H]3OP(O)(=S)OC[C@H]3O[C@@H](n4cnc5c(=O)[nH]c(N)nc54)[C@H](O)[C@@H]3OP(O)(=S)OC[C@H]3O[C@@H](n4ccc(=O)[nH]c4=O)[C@H](O)[C@@H]3OP(O)(=S)OC[C@H]3O[C@@H](n4cnc5c(=O)[nH]c(N)nc54)[C@H](O)[C@@H]3OP(O)(=S)OCC(O)COP(O)(=S)O[C@H]3[C@@H](O)[C@H](n4cnc5c(=O)[nH]c(N)nc54)O[C@@H]3COP(O)(=S)O[C@H]3[C@@H](O)[C@H](n4ccc(=O)[nH]c4=O)O[C@@H]3COP(O)(=S)O[C@H]3[C@@H](O)[C@H](n4cnc5c(=O)[nH]c(N)nc54)O[C@@H]3COP(O)(=S)O[C@H]3[C@@H](O)[C@H](n4ccc(=O)[nH]c4=O)O[C@@H]3COP(O)(=S)O[C@H]3[C@@H](O)[C@H](n4ccc(=O)[nH]c4=O)O[C@@H]3COP(O)(=S)O[C@H]3[C@@H](O)[C@H](n4ccc(N)nc4=O)O[C@@H]3COP(O)(=S)O[C@H]3[C@@H](O)[C@H](n4cnc5c(=O)[nH]c(N)nc54)O[C@@H]3COP(O)(=S)O[C@H]3[C@@H](O)[C@H](n4ccc(=O)[nH]c4=O)O[C@@H]3COP(O)(=S)O[C@H]3[C@@H](O)[C@H](n4ccc(N)nc4=O)O[C@@H]3COP(O)(=S)O[C@H]3[C@@H](O)[C@H](n4cnc5c(=O)[nH]c(N)nc54)O[C@@H]3COP(O)(=S)O[C@H]3[C@@H](O)[C@H](n4ccc(=O)[nH]c4=O)O[C@@H]3COCCCO)[C@H]2O)c(=O)n1 (stereo partly specified)?
Answer: Activity (Cynomolgus monkey [1]): Active; Activity (Cynomolgus monkey [2]): Active; Activity (Cynomolgus monkey [3]): Active; Activity (Cynomolgus monkey [4]): Active; Activity (Cynomolgus monkey [5]): Active; Activity (PBMC [6]): Dose-dependent effect; Activity (PBMC [7]): Dose-dependent effect; Activity (PBMC [8]): Dose-dependent effect; Activity [9]: inactive; Activity (Cynomolgus monkey [10]): Active; Activity (PBMC [11]): Dose-dependent effect; remaining at 10 min [12]: 78%; Activity (Cynomolgus monkey [13]): Active; Activity (PBMC [14]): Dose-dependent effect; Activity (PBMC [15]): Dose-dependent effect; Activity [16]: Active
